Results: the supplement of paper PMC10307832

Experiments:
Experiment in all cases: relative viability (nuclei count vs DMSO), 5 days (fraction); higher = more cells survive
[1] = system: ABC-1
Outline: (§1)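 Lung cancer cell lines in 1536-well plates got either a single drug or a fixed anchor-drug dose together with five library-drug doses (not always all listed) in √10 steps, by pin tool, on the day after seeding. Nuclei were counted after 5 days, and relative viability is the treated-to-vehicle ratio of nuclei counts. Values are medians of duplicate plates.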

[2] = system: CAL-12T
Outline: as §1

[3] = system: ChaGo-K-1
Outline: as §1

[4] = system: HCC-366
Outline: as §1

[5] = system: HCC-78
Outline: as §1

[6] = system: LC-2-ad
Outline: as §1

[7] = system: LOU-NH91
Outline: as §1

[8] = system: LU99A
Outline: as §1

[9] = system: NCI-H1395
Outline: as §1

[10] = system: NCI-H1651
Outline: as §1

[11] = system: NCI-H1734
Outline: as §1

[12] = system: NCI-H1755
Outline: as §1

[13] = system: NCI-H1793
Outline: as §1

[14] = system: NCI-H1944
Outline: as §1

[15] = system: NCI-H2087
Outline: as §1

[16] = system: NCI-H2170
Outline: as §1

[17] = system: NCI-H2228
Outline: as §1

[18] = system: NCI-H2405
Outline: as §1

[19] = system: NCI-H3122
Outline: as §1

[20] = system: NCI-H460
Outline: as §1

[21] = system: PC-3 [JPC-3]
Outline: as §1

[22] = system: RERF-LC-KJ
Outline: as §1

[23] = system: UMC-11
Outline: as §1

Q: `NC(=O)Nc1cc(-c2cccc(F)c2)sc1C(=O)N[C@H]1CCCNC1` [AZD7762] + O=C(c1cc(Cc2n[nH]c(=O)c3ccccc23)ccc1F)N1CCN(C(=O)C2CC2)CC1 [Olaparib] (partner 8 µM) was tested. Which relative viability ([1]; first compound 0.01 µM) did it give?
A: 0.968

Q: And the relative viability ([1]; first compound 0.03162 µM)?
A: 0.857

Q: What about the relative viability ([1]; first compound 0.1 µM) of the same compound?
A: 0.893

Q: And the relative viability ([1]; first compound 0.3162 µM)?
A: 0.938

Q: What about the relative viability ([1]; first compound 1 µM) of the same compound?
A: 0.685

Q: And the relative viability ([2]; first compound 0.01 µM)?
A: 0.908

Q: What about the relative viability ([2]; first compound 0.03162 µM) of the same compound?
A: 0.756

Q: And the relative viability ([2]; first compound 0.1 µM)?
A: 0.865

Q: And the relative viability ([2]; first compound 0.3162 µM)?
A: 0.489

Q: And the relative viability ([2]; first compound 1 µM)?
A: 0.2

Q: What about the relative viability ([3]; first compound 0.01 µM) of the same compound?
A: 0.394

Q: What about the relative viability ([3]; first compound 0.03162 µM) of the same compound?
A: 0.425

Q: And the relative viability ([3]; first compound 0.1 µM)?
A: 0.423

Q: What about the relative viability ([3]; first compound 0.3162 µM) of the same compound?
A: 0.415

Q: And the relative viability ([3]; first compound 1 µM)?
A: 0.379

Q: What about the relative viability ([4]; first compound 0.01 µM) of the same compound?
A: 0.364

Q: And the relative viability ([4]; first compound 0.03162 µM)?
A: 0.305

Q: What about the relative viability ([4]; first compound 0.1 µM) of the same compound?
A: 0.278

Q: And the relative viability ([4]; first compound 0.3162 µM)?
A: 0.157

Q: What about the relative viability ([4]; first compound 1 µM) of the same compound?
A: 0.0818

Q: What about the relative viability ([5]; first compound 0.01 µM) of the same compound?
A: 0.86

Q: What about the relative viability ([5]; first compound 0.03162 µM) of the same compound?
A: 1

Q: What about the relative viability ([5]; first compound 0.1 µM) of the same compound?
A: 0.775

Q: And the relative viability ([5]; first compound 0.3162 µM)?
A: 0.85

Q: And the relative viability ([5]; first compound 1 µM)?
A: 0.515

Q: What about the relative viability ([6]; first compound 0.01 µM) of the same compound?
A: 0.818

Q: And the relative viability ([6]; first compound 0.03162 µM)?
A: 0.772

Q: What about the relative viability ([6]; first compound 0.1 µM) of the same compound?
A: 0.781

Q: What about the relative viability ([6]; first compound 0.3162 µM) of the same compound?
A: 0.703

Q: And the relative viability ([6]; first compound 1 µM)?
A: 0.606

Q: What about the relative viability ([7]; first compound 0.01 µM) of the same compound?
A: 0.915

Q: And the relative viability ([7]; first compound 0.03162 µM)?
A: 0.914

Q: And the relative viability ([7]; first compound 0.1 µM)?
A: 0.867

Q: And the relative viability ([7]; first compound 0.3162 µM)?
A: 0.834

Q: And the relative viability ([7]; first compound 1 µM)?
A: 0.571

Q: What about the relative viability ([8]; first compound 0.01 µM) of the same compound?
A: 0.253

Q: What about the relative viability ([8]; first compound 0.03162 µM) of the same compound?
A: 0.246

Q: And the relative viability ([8]; first compound 0.1 µM)?
A: 0.202

Q: And the relative viability ([8]; first compound 0.3162 µM)?
A: 0.148

Q: And the relative viability ([8]; first compound 1 µM)?
A: 0.124

Q: What about the relative viability ([9]; first compound 0.01 µM) of the same compound?
A: 0.505

Q: What about the relative viability ([9]; first compound 0.03162 µM) of the same compound?
A: 0.415

Q: What about the relative viability ([9]; first compound 0.1 µM) of the same compound?
A: 0.393

Q: What about the relative viability ([9]; first compound 0.3162 µM) of the same compound?
A: 0.387

Q: And the relative viability ([9]; first compound 1 µM)?
A: 0.354

Q: And the relative viability ([10]; first compound 0.01 µM)?
A: 0.184

Q: What about the relative viability ([10]; first compound 0.03162 µM) of the same compound?
A: 0.202

Q: And the relative viability ([10]; first compound 0.1 µM)?
A: 0.156

Q: What about the relative viability ([10]; first compound 0.3162 µM) of the same compound?
A: 0.153

Q: What about the relative viability ([10]; first compound 1 µM) of the same compound?
A: 0.137

Q: And the relative viability ([11]; first compound 0.01 µM)?
A: 0.746

Q: And the relative viability ([11]; first compound 0.03162 µM)?
A: 0.663

Q: And the relative viability ([11]; first compound 0.1 µM)?
A: 0.72

Q: What about the relative viability ([11]; first compound 0.3162 µM) of the same compound?
A: 0.491

Q: What about the relative viability ([11]; first compound 1 µM) of the same compound?
A: 0.316

Q: And the relative viability ([12]; first compound 0.01 µM)?
A: 1.01

Q: And the relative viability ([12]; first compound 0.03162 µM)?
A: 0.92

Q: And the relative viability ([12]; first compound 0.1 µM)?
A: 0.957

Q: And the relative viability ([12]; first compound 0.3162 µM)?
A: 0.855

Q: And the relative viability ([12]; first compound 1 µM)?
A: 0.619

Q: And the relative viability ([13]; first compound 0.01 µM)?
A: 0.886

Q: What about the relative viability ([13]; first compound 0.03162 µM) of the same compound?
A: 0.909

Q: What about the relative viability ([13]; first compound 0.1 µM) of the same compound?
A: 0.917

Q: What about the relative viability ([13]; first compound 0.3162 µM) of the same compound?
A: 0.997

Q: And the relative viability ([13]; first compound 1 µM)?
A: 0.248

Q: And the relative viability ([14]; first compound 0.01 µM)?
A: 0.46

Q: And the relative viability ([14]; first compound 0.03162 µM)?
A: 0.448

Q: And the relative viability ([14]; first compound 0.1 µM)?
A: 0.504

Q: What about the relative viability ([14]; first compound 0.3162 µM) of the same compound?
A: 0.532

Q: And the relative viability ([14]; first compound 1 µM)?
A: 0.446

Q: What about the relative viability ([15]; first compound 0.01 µM) of the same compound?
A: 0.712

Q: What about the relative viability ([15]; first compound 0.03162 µM) of the same compound?
A: 0.768

Q: What about the relative viability ([15]; first compound 0.1 µM) of the same compound?
A: 0.806

Q: What about the relative viability ([15]; first compound 0.3162 µM) of the same compound?
A: 0.858

Q: What about the relative viability ([15]; first compound 1 µM) of the same compound?
A: 0.583

Q: And the relative viability ([16]; first compound 0.01 µM)?
A: 0.553

Q: And the relative viability ([16]; first compound 0.03162 µM)?
A: 0.579

Q: What about the relative viability ([16]; first compound 0.1 µM) of the same compound?
A: 0.535

Q: What about the relative viability ([16]; first compound 0.3162 µM) of the same compound?
A: 0.423

Q: What about the relative viability ([16]; first compound 1 µM) of the same compound?
A: 0.254

Q: And the relative viability ([17]; first compound 0.01 µM)?
A: 0.659

Q: And the relative viability ([17]; first compound 0.03162 µM)?
A: 0.778

Q: What about the relative viability ([17]; first compound 0.1 µM) of the same compound?
A: 0.637

Q: And the relative viability ([17]; first compound 0.3162 µM)?
A: 0.311

Q: And the relative viability ([17]; first compound 1 µM)?
A: 0.193

Q: And the relative viability ([18]; first compound 0.01 µM)?
A: 0.889

Q: What about the relative viability ([18]; first compound 0.03162 µM) of the same compound?
A: 0.911

Q: What about the relative viability ([18]; first compound 0.1 µM) of the same compound?
A: 0.837

Q: What about the relative viability ([18]; first compound 0.3162 µM) of the same compound?
A: 0.816

Q: And the relative viability ([18]; first compound 1 µM)?
A: 0.294

Q: And the relative viability ([19]; first compound 0.01 µM)?
A: 0.681

Q: What about the relative viability ([19]; first compound 0.03162 µM) of the same compound?
A: 0.527

Q: What about the relative viability ([19]; first compound 0.1 µM) of the same compound?
A: 0.588

Q: And the relative viability ([19]; first compound 0.3162 µM)?
A: 0.477

Q: And the relative viability ([19]; first compound 1 µM)?
A: 0.404

Q: And the relative viability ([20]; first compound 0.01 µM)?
A: 0.441

Q: And the relative viability ([20]; first compound 0.03162 µM)?
A: 0.35

Q: What about the relative viability ([20]; first compound 0.1 µM) of the same compound?
A: 0.261

Q: And the relative viability ([20]; first compound 0.3162 µM)?
A: 0.132

Q: And the relative viability ([20]; first compound 1 µM)?
A: 0.0653

Q: What about the relative viability ([21]; first compound 0.01 µM) of the same compound?
A: 1.19

Q: And the relative viability ([21]; first compound 0.03162 µM)?
A: 1.06

Q: And the relative viability ([21]; first compound 0.1 µM)?
A: 1.12

Q: And the relative viability ([21]; first compound 0.3162 µM)?
A: 1.05

Q: What about the relative viability ([21]; first compound 1 µM) of the same compound?
A: 0.634

Q: And the relative viability ([22]; first compound 0.01 µM)?
A: 0.928

Q: What about the relative viability ([22]; first compound 0.03162 µM) of the same compound?
A: 0.922

Q: And the relative viability ([22]; first compound 0.1 µM)?
A: 1.01

Q: And the relative viability ([22]; first compound 0.3162 µM)?
A: 0.893

Q: And the relative viability ([22]; first compound 1 µM)?
A: 0.65

Q: What about the relative viability ([23]; first compound 0.01 µM) of the same compound?
A: 0.819

Q: And the relative viability ([23]; first compound 0.03162 µM)?
A: 0.342

Q: And the relative viability ([23]; first compound 0.1 µM)?
A: 0.277

Q: What about the relative viability ([23]; first compound 0.3162 µM) of the same compound?
A: 0.256

Q: What about the relative viability ([23]; first compound 1 µM) of the same compound?
A: 0.255
